Patent US8828908B2, “Herbicidally active bicyclic 1,3-dione compounds” (Syngenta Limited, priority 2007, dated 2014)

Assays:
Type in all cases: in vivo
Setaria faberi (SETFA) [1] = experiment: Example A post-emergence herbicidal glasshouse test; conditions: 312 h, evaluated after 13 days, 100=total damage to plant, 0=no damage
Procedure, shortened: (§1)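 Pots, standard soil; spray at day 1 (pre) or day 8 (post); a.i. formulated in acetone/water 50:50 + 0.5% Tween 20; 24/16 °C, 14 h light, 65% RH, watered twice daily; visual rating at 13 d (0 = no damage, 100 = total damage).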

Avena fatua (AVEFA) [2] = experiment: as above; conditions: 312 h, evaluated after 13 days, 100=total damage to plant, 0=no damage
Procedure, shortened: as §1

Solanum nigrum (SOLNI) [3] = experiment: as above; conditions: 250 g/ha, evaluated after 13 days, 100=total damage to plant, 0=no damage
Procedure, shortened: as §1

[4] = test system: Echinochloa crus-galli (ECHCG); experiment: as above; conditions: 312 h, evaluated after 13 days, 100=total damage to plant, 0=no damage
Procedure, shortened: as §1

[5] = test system: Amaranthus retroflexus (AMARE); experiment: as above; conditions: 312 h, evaluated after 13 days, 100=total damage to plant, 0=no damage
Procedure, shortened: as §1

[6] = test system: Alopecurus myosuroides (ALOMY); experiment: as above; conditions: 312 h, evaluated after 13 days, 100=total damage to plant, 0=no damage
Procedure, shortened: as §1

Setaria faberi (SETFA) [7] = experiment: Example A pre-emergence herbicidal glasshouse test; conditions: 312 h, Rate 250 g/ha, evaluated after 13 days, 100=total damage to plant, 0=no damage to plant
Procedure, shortened: as §1

Avena fatua (AVEFA) [8] = experiment: Example A pre-emergence herbicidal glasshouse test; conditions: 312 h, Rate 250 g/ha, evaluated after 13 days, 100=total damage to plant, 0=no damage to plant
Procedure, shortened: as §1

Solanum nigrum (SOLNI) [9] = experiment: Example A pre-emergence herbicidal glasshouse test; conditions: Rate 250 g/ha, evaluated after 13 days, 100=total damage to plant, 0=no damage to plant
Procedure, shortened: as §1

[10] = test system: Echinochloa crus-galli (ECHCG); experiment: Example A pre-emergence herbicidal glasshouse test; conditions: 312 h, Rate 250 g/ha, evaluated after 13 days, 100=total damage to plant, 0=no damage to plant
Procedure, shortened: as §1

[11] = test system: Amaranthus retroflexus (AMARE); experiment: Example A pre-emergence herbicidal glasshouse test; conditions: 312 h, Rate 250 g/ha, evaluated after 13 days, 100=total damage to plant, 0=no damage to plant
Procedure, shortened: as §1

[12] = test system: Alopecurus myosuroides (ALOMY); experiment: Example A pre-emergence herbicidal glasshouse test; conditions: 312 h, Rate 250 g/ha, evaluated after 13 days, 100=total damage to plant, 0=no damage to plant
Procedure, shortened: as §1

Setaria faberi (SETFA) [13] = experiment: Example B post-emergence herbicidal greenhouse test; conditions: 360 h, evaluated after 15 days, 100=total damage to plant, 0=no damage
Procedure, shortened: (§2)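 Read-out is visual plant damage (100 = total, 0 = none) assessed 20 days (pre-emergence) or 15 days (post-emergence) after spraying. Seeds in pots had been cultivated 1 day or 10 days respectively under controlled glasshouse conditions before application of an aqueous formulated spray.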

Avena fatua (AVEFA) [14] = experiment: as above; conditions: 360 h, evaluated after 15 days, 100=total damage to plant, 0=no damage
Procedure, shortened: as §2

Lolium perenne (LOLPE) [15] = experiment: as above; conditions: 360 h, evaluated after 15 days, 100=total damage to plant, 0=no damage
Procedure, shortened: as §2

[16] = test system: Echinochloa crus-galli (ECHCG); experiment: as above; conditions: 360 h, evaluated after 15 days, 100=total damage to plant, 0=no damage
Procedure, shortened: as §2

[17] = test system: Digitaria sanguinalis (DIGSA); experiment: as above; conditions: 360 h, evaluated after 15 days, 100=total damage to plant, 0=no damage
Procedure, shortened: as §2

[18] = test system: Alopecurus myosuroides (ALOMY); experiment: as above; conditions: 360 h, evaluated after 15 days, 100=total damage to plant, 0=no damage
Procedure, shortened: as §2

Setaria faberi (SETFA) [19] = experiment: Example B pre-emergence herbicidal greenhouse test; conditions: 480 h, evaluated after 20 days, 100=total damage to plant, 0=no damage
Procedure, shortened: as §2

Avena fatua (AVEFA) [20] = experiment: Example B pre-emergence herbicidal greenhouse test; conditions: 480 h, evaluated after 20 days, 100=total damage to plant, 0=no damage
Procedure, shortened: as §2

Lolium perenne (LOLPE) [21] = experiment: Example B pre-emergence herbicidal greenhouse test; conditions: 480 h, evaluated after 20 days, 100=total damage to plant, 0=no damage
Procedure, shortened: as §2

[22] = test system: Echinochloa crus-galli (ECHCG); experiment: Example B pre-emergence herbicidal greenhouse test; conditions: 480 h, evaluated after 20 days, 100=total damage to plant, 0=no damage
Procedure, shortened: as §2

[23] = test system: Digitaria sanguinalis (DIGSA); experiment: Example B pre-emergence herbicidal greenhouse test; conditions: 480 h, evaluated after 20 days, 100=total damage to plant, 0=no damage
Procedure, shortened: as §2

[24] = test system: Alopecurus myosuroides (ALOMY); experiment: Example B pre-emergence herbicidal greenhouse test; conditions: 480 h, evaluated after 20 days, 100=total damage to plant, 0=no damage
Procedure, shortened: as §2

SMILES	pest or weed control at 250 g/ha (Setaria faberi (SETFA) [1]) [%]	pest or weed control at 250 g/ha (Avena fatua (AVEFA) [2]) [%]	SOLNI damage to plant (Solanum nigrum (SOLNI) [3])	pest or weed control at 250 g/ha [4] [%]	pest or weed control at 250 g/ha [5] [%]	pest or weed control at 250 g/ha [6] [%]	pest or weed control at 250 g/ha (Setaria faberi (SETFA) [7]) [%]	pest or weed control at 250 g/ha (Avena fatua (AVEFA) [8]) [%]	SOLNI damage to plant (Solanum nigrum (SOLNI) [9])	pest or weed control at 250 g/ha [10] [%]	pest or weed control at 250 g/ha [11] [%]	pest or weed control at 250 g/ha [12] [%]	pest or weed control at 125 g/ha (Setaria faberi (SETFA) [13]) [%]	pest or weed control at 125 g/ha (Avena fatua (AVEFA) [14]) [%]	pest or weed control at 125 g/ha (Lolium perenne (LOLPE) [15]) [%]	pest or weed control at 125 g/ha [16] [%]	pest or weed control at 125 g/ha [17] [%]	pest or weed control at 125 g/ha [18] [%]	pest or weed control at 250 g/ha (Setaria faberi (SETFA) [19]) [%]	pest or weed control at 250 g/ha (Avena fatua (AVEFA) [20]) [%]	also measured
Cc1ccc(-c2cccc(F)c2)cc1C1=C(O)[C@H]2CC[C@H](C2)C1=O (single isomer, unassigned) [Compound T13]	0	0	0	10	0	0	0	0	0	0	0	0									
CCc1ccc(-c2ccc(C)c(C3=C(O)[C@H]4CC[C@H](C4)C3=O)c2)cc1 (single isomer, unassigned) [Compound T14]	70	0	0	30	0	0	0	0	0	0	0	0									
Cc1cc(C)c(-c2ccc(C)c(C3=C(O)[C@H]4CC[C@H](C4)C3=O)c2)c(C)c1 (single isomer, unassigned) [Compound T15]	0		0		0		0	0			0	0									
Cc1ccc(-c2ccccc2F)cc1C1=C(O)[C@H]2CC[C@H](C2)C1=O (single isomer, unassigned) [Compound T16]	0	0	0	0	0	0	0	0	0	0	0	0									
Cc1ccc(-c2ccc(F)cc2)cc1C1=C(O)[C@H]2CC[C@H](C2)C1=O (single isomer, unassigned) [Compound T17]	80	0	0	70	0	10	80	10	0	50	0	0									
Cc1ccc(-c2ccc(Cl)cc2)cc1C1=C(O)[C@H]2CC[C@H](C2)C1=O [Compound T1, 3-(4′-chloro-4-methylbiphen-3-yl)bicyclo[3.2.1]octane-2,4-dione]	100	90	20	100	50	80	90	40	0	90	0	50	90	30	50	90	90	50	100	30	pest or weed control at 250 g/ha (Lolium perenne (LOLPE) [21]): 100%; pest or weed control at 250 g/ha [22]: 100%; pest or weed control at 250 g/ha [23]: 50%; pest or weed control at 250 g/ha [24]: 80%
CCc1ccc(-c2ccc(Cl)cc2)cc1C1=C(O)[C@H]2CC[C@H](C2)C1=O [Compound T4, 3-(4′-chloro-4-ethylbiphen-3-yl)bicyclo[3.2.1]octane-2,4-dione]	100	100	0	100	0	90	90	50	0	100	0	50	100	100	100	100	100	80	100	80	pest or weed control at 250 g/ha (Lolium perenne (LOLPE) [21]): 100%; pest or weed control at 250 g/ha [22]: 100%; pest or weed control at 250 g/ha [23]: 100%; pest or weed control at 250 g/ha [24]: 100%
Cc1cc(-c2ccc(Cl)cc2)ccc1C1=C(O)[C@H]2CC[C@H](C2)C1=O [Compound T61, 3-(4′-chloro-3-methylbiphen-4-yl)bicyclo[3.2.1]octane-2,4-dione]	100	60		100	20	100	90	30		80	0	40	90	30	30	80	100	60	100	40	pest or weed control at 250 g/ha (Lolium perenne (LOLPE) [21]): 90%; pest or weed control at 250 g/ha [22]: 90%; pest or weed control at 250 g/ha [23]: 100%; pest or weed control at 250 g/ha [24]: 100%
CCc1cc(-c2ccc(Cl)cc2)cc(CC)c1C1=C(O)[C@H]2CC[C@H](C2)C1=O [Compound T62, 3-(4′-chloro-3,5-diethylbiphen-4-yl)bicyclo[3.2.1]octane-2,4-dione]	100	90		100	0	100	100	80		100	20	80	100	60	50	100	100	60	100	50	pest or weed control at 250 g/ha (Lolium perenne (LOLPE) [21]): 100%; pest or weed control at 250 g/ha [22]: 100%; pest or weed control at 250 g/ha [23]: 100%; pest or weed control at 250 g/ha [24]: 100%
CCc1cc(-c2ccc(C)cc2)cc(CC)c1C1=C(O)[C@H]2CC[C@H](C2)C1=O [Compound T63]	100	50		100	0	70	100	30		90	0	50	50	20	10	50	60	0	70	20	pest or weed control at 250 g/ha (Lolium perenne (LOLPE) [21]): 100%; pest or weed control at 250 g/ha [22]: 60%; pest or weed control at 250 g/ha [23]: 90%; pest or weed control at 250 g/ha [24]: 80%
